Laboratory results as given in the supplement of paper PMC10307832.

Key:
Assay in all cases: relative viability (nuclei count vs DMSO), 5 days (fraction); higher = more cells survive
COR-L23 = system: COR-L23
Procedure, shortened: (§1)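 Nuclei were stained with Hoechst during a one-step fixation (final 0.05% Triton X-100, 1% formaldehyde, 1 ug/ml Hoechst) carried out 5 days after dosing, then counted on 4× images. The cells, lung cancer lines in 1536-well plates, had been dosed by pin tool the day after seeding with one drug alone or a fixed anchor-drug dose plus five library-drug doses (not always all listed) in √10 steps. Relative viability is the nuclei count in treated wells divided by that in vehicle wells, and each value is the median of duplicate plates.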

ChaGo-K-1 = system: ChaGo-K-1
Procedure, shortened: as §1

EPLC-272H = system: EPLC-272H
Procedure, shortened: as §1

H3255 = system: H3255
Procedure, shortened: as §1

HARA = system: HARA
Procedure, shortened: as §1

HCC-78 = system: HCC-78
Procedure, shortened: as §1

HOP-62 = system: HOP-62
Procedure, shortened: as §1

LCLC-97TM1 = system: LCLC-97TM1
Procedure, shortened: as §1

LXF-289 = system: LXF-289
Procedure, shortened: as §1

NCI-H1395 = system: NCI-H1395
Procedure, shortened: as §1

NCI-H1437 = system: NCI-H1437
Procedure, shortened: as §1

NCI-H1650 = system: NCI-H1650
Procedure, shortened: as §1

NCI-H1666 = system: NCI-H1666
Procedure, shortened: as §1

NCI-H1793 = system: NCI-H1793
Procedure, shortened: as §1

NCI-H1944 = system: NCI-H1944
Procedure, shortened: as §1

NCI-H2085 = system: NCI-H2085
Procedure, shortened: as §1

NCI-H2087 = system: NCI-H2087
Procedure, shortened: as §1

NCI-H2126 = system: NCI-H2126
Procedure, shortened: as §1

NCI-H3122 = system: NCI-H3122
Procedure, shortened: as §1

NCI-H441 = system: NCI-H441
Procedure, shortened: as §1

NCI-H596 = system: NCI-H596
Procedure, shortened: as §1

NCI-H661 = system: NCI-H661
Procedure, shortened: as §1

PC-14 = system: PC-14
Procedure, shortened: as §1

CN1CCN(CCOc2cc(OC3CCOCC3)c3c(Nc4c(Cl)ccc5c4OCO5)ncnc3c2)CC1 [Saracatinib] + N=C(N)NC(=N)NCCc1ccccc1 [Phenformin] (partner 250 µM)
relative viability (COR-L23; first compound 0.02 µM): 0.466
relative viability (COR-L23; first compound 0.2 µM): 0.393
relative viability (COR-L23; first compound 0.6325 µM): 0.481
relative viability (COR-L23; first compound 2 µM): 0.449
relative viability (ChaGo-K-1; first compound 0.02 µM): 0.564
relative viability (ChaGo-K-1; first compound 0.2 µM): 0.314
relative viability (ChaGo-K-1; first compound 0.6325 µM): 0.447
relative viability (ChaGo-K-1; first compound 2 µM): 0.381
relative viability (EPLC-272H; first compound 0.02 µM): 0.285
relative viability (EPLC-272H; first compound 0.2 µM): 0.327
relative viability (EPLC-272H; first compound 0.6325 µM): 0.319
relative viability (EPLC-272H; first compound 2 µM): 0.251
relative viability (H3255; first compound 0.02 µM): 0.354
relative viability (H3255; first compound 0.2 µM): 0.33
relative viability (H3255; first compound 0.6325 µM): 0.254
relative viability (H3255; first compound 2 µM): 0.251
relative viability (HARA; first compound 0.02 µM): 0.54
relative viability (HARA; first compound 0.2 µM): 0.279
relative viability (HARA; first compound 0.6325 µM): 0.496
relative viability (HARA; first compound 2 µM): 0.24
relative viability (HCC-78; first compound 0.02 µM): 0.704
relative viability (HCC-78; first compound 0.6325 µM): 0.772
relative viability (HCC-78; first compound 2 µM): 0.554
relative viability (HOP-62; first compound 0.02 µM): 0.661
relative viability (HOP-62; first compound 0.2 µM): 0.629
relative viability (HOP-62; first compound 0.6325 µM): 0.593
relative viability (HOP-62; first compound 2 µM): 0.623
relative viability (LCLC-97TM1; first compound 0.02 µM): 0.461
relative viability (LCLC-97TM1; first compound 0.2 µM): 0.399
relative viability (LCLC-97TM1; first compound 0.6325 µM): 0.469
relative viability (LCLC-97TM1; first compound 2 µM): 0.413
relative viability (LXF-289; first compound 0.02 µM): 0.546
relative viability (LXF-289; first compound 0.2 µM): 0.486
relative viability (LXF-289; first compound 0.6325 µM): 0.506
relative viability (LXF-289; first compound 2 µM): 0.458
relative viability (NCI-H1395; first compound 0.02 µM): 0.434
relative viability (NCI-H1395; first compound 0.2 µM): 0.455
relative viability (NCI-H1395; first compound 0.6325 µM): 0.474
relative viability (NCI-H1395; first compound 2 µM): 0.348
relative viability (NCI-H1437; first compound 0.02 µM): 0.375
relative viability (NCI-H1437; first compound 0.2 µM): 0.345
relative viability (NCI-H1437; first compound 0.6325 µM): 0.329
relative viability (NCI-H1437; first compound 2 µM): 0.27
relative viability (NCI-H1650; first compound 0.02 µM): 0.412
relative viability (NCI-H1650; first compound 0.2 µM): 0.253
relative viability (NCI-H1650; first compound 0.6325 µM): 0.317
relative viability (NCI-H1650; first compound 2 µM): 0.295
relative viability (NCI-H1666; first compound 0.02 µM): 0.562
relative viability (NCI-H1666; first compound 0.2 µM): 0.566
relative viability (NCI-H1666; first compound 0.6325 µM): 0.642
relative viability (NCI-H1666; first compound 2 µM): 0.588
relative viability (NCI-H1793; first compound 0.02 µM): 0.439
relative viability (NCI-H1793; first compound 0.6325 µM): 0.308
relative viability (NCI-H1793; first compound 2 µM): 0.263
relative viability (NCI-H1944; first compound 0.02 µM): 0.227
relative viability (NCI-H1944; first compound 0.6325 µM): 0.161
relative viability (NCI-H1944; first compound 2 µM): 0.141
relative viability (NCI-H2085; first compound 0.2 µM): 0.694
relative viability (NCI-H2085; first compound 0.6325 µM): 0.809
relative viability (NCI-H2085; first compound 2 µM): 0.667
relative viability (NCI-H2087; first compound 0.02 µM): 0.484
relative viability (NCI-H2087; first compound 0.2 µM): 0.39
relative viability (NCI-H2087; first compound 0.6325 µM): 0.468
relative viability (NCI-H2087; first compound 2 µM): 0.355
relative viability (NCI-H2126; first compound 0.02 µM): 0.537
relative viability (NCI-H2126; first compound 0.2 µM): 0.522
relative viability (NCI-H2126; first compound 0.6325 µM): 0.524
relative viability (NCI-H2126; first compound 2 µM): 0.473
relative viability (NCI-H3122; first compound 0.02 µM): 0.385
relative viability (NCI-H3122; first compound 0.2 µM): 0.248
relative viability (NCI-H3122; first compound 0.6325 µM): 0.301
relative viability (NCI-H3122; first compound 2 µM): 0.285
relative viability (NCI-H441; first compound 0.02 µM): 0.768
relative viability (NCI-H441; first compound 0.2 µM): 0.733
relative viability (NCI-H441; first compound 0.6325 µM): 1.17
relative viability (NCI-H441; first compound 2 µM): 0.819
relative viability (NCI-H596; first compound 0.02 µM): 0.845
relative viability (NCI-H596; first compound 0.2 µM): 0.625
relative viability (NCI-H596; first compound 0.6325 µM): 0.689
relative viability (NCI-H596; first compound 2 µM): 0.67
relative viability (NCI-H661; first compound 0.02 µM): 0.282
relative viability (NCI-H661; first compound 0.2 µM): 0.271
relative viability (NCI-H661; first compound 0.6325 µM): 0.233
relative viability (NCI-H661; first compound 2 µM): 0.236
relative viability (PC-14; first compound 0.02 µM): 0.646
relative viability (PC-14; first compound 0.2 µM): 0.441
relative viability (PC-14; first compound 0.6325 µM): 0.256
relative viability (PC-14; first compound 2 µM): 0.124
